# The supplement of paper PMC10307832
# Tests used:
# Experiment in all cases: relative viability (nuclei count vs DMSO), 5 days (fraction); higher = more cells survive
# Cediranib + Crizotinib = compound: COc1cc2c(Oc3ccc4[nH]c(C)cc4c3F)ncnc2cc1OCCCN1CCCC1 [Cediranib] + C[C@@H](Oc1cc(-c2cnn(C3CCNCC3)c2)cnc1N)c1c(Cl)ccc(F)c1Cl [Crizotinib] (partner 1 µM)
# Method in brief: (§1)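 Lung cancer cell lines in 1536-well plates got either a single drug or a fixed anchor-drug dose together with five library-drug doses (not always all listed) in √10 steps, by pin tool, on the day after seeding. Nuclei were counted after 5 days, and relative viability is the treated-to-vehicle ratio of nuclei counts. Values are medians of duplicate plates.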
# Halofuginone + Olaparib = compound: O=C(C[C@H]1NCCC[C@@H]1O)Cn1cnc2cc(Br)c(Cl)cc2c1=O (racemic) [Halofuginone] + O=C(c1cc(Cc2n[nH]c(=O)c3ccccc23)ccc1F)N1CCN(C(=O)C2CC2)CC1 [Olaparib] (partner 8 µM)
# Method in brief: as §1
# [1] = compound: O=C(C[C@H]1NCCC[C@@H]1O)Cn1cnc2cc(Br)c(Cl)cc2c1=O (racemic) [Halofuginone] + C[C@]1(O)C[C@@H](c2nc(-c3ccc4ccc(-c5ccccc5)nc4c3)c3c(N)nccn32)C1 [Linsitinib] (partner 1 µM)
# Method in brief: as §1
# Cediranib + Pictilisib = compound: COc1cc2c(Oc3ccc4[nH]c(C)cc4c3F)ncnc2cc1OCCCN1CCCC1 [Cediranib] + CS(=O)(=O)N1CCN(Cc2cc3nc(-c4cccc5[nH]ncc45)nc(N4CCOCC4)c3s2)CC1 [Pictilisib] (partner 1 µM)
# Method in brief: as §1
Cell Line,relative viability (Cediranib + Crizotinib; first compound 0.04 µM),relative viability (Cediranib + Crizotinib; first compound 0.1265 µM),relative viability (Cediranib + Crizotinib; first compound 0.4 µM),relative viability (Cediranib + Crizotinib; first compound 1.265 µM),relative viability (Cediranib + Crizotinib; first compound 4 µM),relative viability (Halofuginone + Olaparib; first compound 0.001 µM),relative viability (Halofuginone + Olaparib; first compound 0.003162 µM),relative viability (Halofuginone + Olaparib; first compound 0.01 µM),relative viability (Halofuginone + Olaparib; first compound 0.03162 µM),relative viability (Halofuginone + Olaparib; first compound 0.1 µM),relative viability ([1]; first compound 0.001 µM),relative viability ([1]; first compound 0.003162 µM),relative viability ([1]; first compound 0.01 µM),relative viability ([1]; first compound 0.03162 µM),relative viability ([1]; first compound 0.1 µM),relative viability (Cediranib + Pictilisib; first compound 0.04 µM),relative viability (Cediranib + Pictilisib; first compound 0.1265 µM),relative viability (Cediranib + Pictilisib; first compound 0.4 µM),relative viability (Cediranib + Pictilisib; first compound 1.265 µM),relative viability (Cediranib + Pictilisib; first compound 4 µM)
NCI-H1703,0.721,0.707,0.188,0.214,0.191,0.495,0.483,0.482,0.289,0.2,0.944,1.03,0.617,0.559,0.353,0.226,0.209,0.209,0.194,0.221
HCC-827,0.931,–,0.869,0.951,0.976,0.673,0.588,0.667,0.631,0.599,0.968,0.983,0.978,1.02,0.892,1.1,–,0.955,0.944,0.97
NCI-H1993,0.968,0.902,0.886,0.865,0.858,0.949,0.699,1.04,1.02,0.623,0.742,0.685,0.72,0.801,0.544,0.883,0.806,0.719,0.805,0.809
NCI-H647,1.24,1.03,0.86,1.1,1.18,0.637,0.746,0.517,0.442,0.11,1.35,1.06,1.03,0.665,0.173,0.429,–,0.392,0.324,0.385
NCI-H460,0.867,0.906,0.815,0.889,0.935,0.417,0.416,0.466,0.415,0.083,0.696,0.833,0.78,0.404,0.0417,0.466,0.7,0.355,0.33,0.397
EMC-BAC-2,0.782,0.703,0.754,0.785,0.853,0.538,0.486,0.471,0.476,0.299,0.813,0.872,0.798,0.785,0.641,0.568,0.54,0.538,0.443,0.555
NCI-H23,0.472,–,0.557,0.518,0.597,0.409,0.291,0.326,0.271,0.223,0.656,0.573,0.556,0.692,0.211,0.472,–,0.533,0.345,0.569
A-427,0.946,–,0.829,0.866,0.884,0.826,0.695,0.77,0.704,0.597,1.18,1.13,1.02,1.09,1.08,0.716,–,0.608,0.573,0.707
ABC-1,1.39,1.17,1.34,–,0.999,1.06,0.793,0.617,0.847,1.09,0.921,0.947,0.763,0.625,0.961,0.786,0.566,0.69,–,0.737
IA-LM,0.775,1.28,0.718,0.828,0.992,0.848,0.913,0.768,0.656,0.305,0.735,0.78,0.547,0.775,0.434,0.369,0.577,0.315,0.406,0.361
NCI-H322M,0.894,1.05,0.887,0.904,0.945,0.821,0.535,0.781,0.624,0.5,0.919,1.02,0.907,1.04,0.926,0.52,0.698,0.533,0.467,0.521
COR-L23,0.696,0.749,0.654,0.703,0.68,0.349,0.348,0.346,0.292,0.171,0.973,0.91,0.972,0.876,0.102,0.75,0.821,0.775,0.501,0.783
NCI-H2085,0.888,0.927,0.876,0.813,0.868,0.795,0.816,0.728,0.736,0.684,0.863,1.01,0.864,0.898,0.627,0.466,0.501,0.473,0.419,0.399
NCI-H2087,0.926,0.868,0.807,0.838,0.912,0.616,0.685,0.629,0.617,0.277,1.01,1.04,0.945,0.98,0.833,0.921,0.763,0.825,0.752,0.935
HCC-366,0.629,0.574,0.423,0.466,0.788,0.337,0.319,0.351,0.328,0.0775,0.638,0.69,0.692,0.618,0.126,0.138,0.148,0.127,0.0996,0.17
NCI-H2126,1.04,1.07,0.986,0.994,1.01,0.893,0.863,0.882,0.901,0.916,0.73,0.671,0.673,0.71,0.648,0.442,0.432,0.458,0.452,0.435
SK-LU-1,0.973,0.853,0.781,0.897,0.983,0.488,0.444,0.477,0.454,0.312,1.18,0.559,1.14,0.912,0.58,0.632,0.796,0.54,0.497,0.498
